These are literature values, as cited in patent US8575311B2, “Collagen peptide conjugates and uses therefor” (Purdue Research Foundation, priority 2008, dated 2013).

The conditions of this data set: comparison value, conditions not given.

Regarding (Pro-Hyp-Gly)9, the “Tm of comparison peptide” value was 67 °C.
